6 compounds from ChEMBL document CHEMBL3997835, “Isoquinoline alkaloids from Coptis japonica stimulate the myoblast differentiation via p38 MAP-kinase and Akt signaling pathway” (Bioorg Med Chem Lett, 2017) can be followed below.

SMILES strings stand for the structures. Activity calls are given as the source filed them. The calls are words filed in the database; no cut-off is given here.

Data set [1] concerns C2C12. Nature of the data set: Induction of MyoD transcriptional activity in mouse C2C12 cells expressing MyoD-responsive 4RTK-Luc at 10 nM after 24 hrs by luciferase reporter gene assay. It counts as functional, cell-based.
The subject of data set [2] is C2C12. Nature of the data set: Cytotoxicity against mouse C2C12 cells at 10 nM up to 24 hrs. In kind it is cell-based. To be noted: c2c12, 24 h, 0.01 µM.
Data set [3] relates to C2C12. Nature of the data set: Induction of myoblast differentiation in mouse C2C12 cells expressing MyoD-responsive 4RTK-Luc assessed as increase in MHC protein expression at 10 nM after 2 days by Western blot analysis. In kind it is functional, cell-based. Background: In western blotting, separated proteins are transferred to a membrane and probed.
The subject of data set [4] is C2C12. Nature of the data set: Induction of myoblast differentiation in mouse C2C12 cells assessed as increase in MHC protein expression after 2 days by Western blot analysis. In kind it is functional, cell-based.
Data set [5] concerns the target RAC-alpha serine/threonine-protein kinase (Mus musculus) (UniProt P31750). Nature of the data set: Induction of Akt phosphorylation in mouse C2C12 cells up to 10 nM after 2 days by Western blot analysis. In kind it is cell-based.
Data set [6] relates to C2C12. Nature of the data set: Induction of myoblast differentiation in mouse C2C12 cells assessed as increase in MyoD protein expression after 2 days by Western blot analysis. In kind it is functional, cell-based.
Data set [7] has as its target MAP kinase p38 (Mus musculus) (UniProt P47811+O08911+Q9WUI1+Q9Z1B7). Nature of the data set: Induction of p38 MAPK phosphorylation in mouse C2C12 cells at 0.1 nM after 2 days by Western blot analysis relative to control. It counts as cell-based.
The test system of data set [8] is C2C12. Nature of the data set: Induction of myoblast differentiation in mouse C2C12 cells assessed as increase in MHC expression after 2 days by DAPI staining based immunofluorescence assay. In kind it is functional, cell-based.
Data set [9] concerns C2C12. Nature of the data set: Induction of myoblast differentiation in mouse C2C12 cells assessed as cylinder shaped multinucleated myotubes after 2 days by DAPI staining based immunofluorescence assay. It counts as functional, cell-based.

Sequence of RAC-alpha serine/threonine-protein kinase (Mus musculus) (P31750 whole entry): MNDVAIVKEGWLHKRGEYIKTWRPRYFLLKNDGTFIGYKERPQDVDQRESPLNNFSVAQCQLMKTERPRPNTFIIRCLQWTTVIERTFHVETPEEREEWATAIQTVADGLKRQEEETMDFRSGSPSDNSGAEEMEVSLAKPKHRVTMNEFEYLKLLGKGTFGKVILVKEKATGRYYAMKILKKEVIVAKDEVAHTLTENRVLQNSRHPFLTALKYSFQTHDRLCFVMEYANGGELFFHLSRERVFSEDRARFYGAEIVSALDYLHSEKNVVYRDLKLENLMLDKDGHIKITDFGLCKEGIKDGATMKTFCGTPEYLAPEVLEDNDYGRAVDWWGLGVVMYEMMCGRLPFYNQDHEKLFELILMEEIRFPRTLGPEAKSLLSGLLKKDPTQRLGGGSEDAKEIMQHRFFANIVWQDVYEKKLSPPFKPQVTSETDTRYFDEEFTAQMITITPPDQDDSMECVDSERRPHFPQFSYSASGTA

As for `COc1cc2c(cc1OC)-c1cc3ccc4c(c3c[n+]1CC2)OCO4`, the result in the data set with C2C12 [1] and with C2C12 [3] was Active. For the same compound, in the data set on C2C12 [2], the Activity result was “Non-Toxic”.

For `OC1c2c(ccc3c2OCO3)C=C2c3cc4c(cc3CCN21)OCO4` (centres undefined), the outcome with C2C12 [1] and with C2C12 [3] was Active. In addition, in the data set on C2C12 [2], the Activity result is “Non-Toxic”.

Take `COc1ccc2cc3[n+](cc2c1OC)CCc1cc2c(cc1-3)OCO2` [BERBERINE]: the result in the data set on C2C12 [1] and with C2C12 [3] was Active. The Activity result in the data set with C2C12 [2] was “Non-Toxic”.

On to `COc1cc2c(cc1O)CC[n+]1cc3c(OC)c(OC)ccc3cc1-2` [JATRORRHIZINE], for which the result in the data set with C2C12 [1] and in the data set with C2C12 [3] was Active. Further, the Activity entry in the data set with C2C12 [2] is listed as “Non-Toxic”.

In the case of `COc1ccc2c(c1O)-c1c(O)c(OC)cc3c1[C@H](C2)[N+](C)(C)CC3` [MAGNOFLORINE], the Activity entry was “Dose-dependent effect” with C2C12 [4]; “Dose-dependent effect” in the data set with C2C12 [6]; “Dose-dependent effect” with C2C12 [8]; “Non-Toxic” in the data set with C2C12 [2]; “Dose-dependent effect” in the data set on C2C12 [9]. The outcome (in data set [5]; in the data set with C2C12 [1]; in the data set on C2C12 [3]) was Active. In [7], this compound showed a fold change (FC) of 6.

Take `COc1cc2c(cc1OC)-c1cc3ccc(OC)c(OC)c3c[n+]1CC2` [PALMITINE]: the result with C2C12 [1] and with C2C12 [3] was Active. The Activity entry in the data set on C2C12 [2] is “Non-Toxic”.
